According to BindingDB's records for patent US117808 (H. Lundbeck, 2023):
Where “and” joins values, the source holds several entries; their conditions need not be identical. Equal values may be shown once.

How the values were obtained:
[1] = target: Leucine-rich repeat serine/threonine-protein kinase 2 (Homo sapiens, UniProt Q5S007); test: LRRK2 Wild-Type and G2019S Kinase Activity Assay
Description: (§1) The LRRK2 kinase was obtained from Invitrogen (Life Technologies Corporation) and comprises residue 970 to 2527 of the full length human wild-type LRRK2 kinase, or a similar sequence with the G2019S mutation. As discussed above, this mutation increases the kinase activity relative to the wild type. The kinase reactions were performed in a 20 uL volume in 384-well plates. The kinase reaction buffer consisted of 50 mM Tris pH 8.5, 0.01% BRIJ-35, 10 mM MgCl2, 1 mM EGTA, and 2 mM DTT.In the assay, 1 nM LRRK2 WT or 250 pM LRRK2 G2019S kinase in kinase reaction buffer was incubated with the test compound (typically at 0 to 30 uM) for 30 minutes before the kinase reaction was initiated by addition of 1.3 mM ATP and 0.4 uM fluorescein-LRRKtide. The reaction mixture (20 ul total volume) was incubated for 3.5 h (for LRRK2 WT) and 3 h (for LRRK2 G2019S) at 30 C., before the reaction was terminated by addition of 10 mM EDTA and 1 nM terbium-labelled anti-phospho-LRRKtide antibody (final volume […]). The mixture was further incubated for 30 minutes at RT. TR-FRET was measured by excitation of the terbium-donor with 340 nm light and subsequent (delay time 100 us) measurement of terbium and fluorescein emission at 495 nm and 520 nm, respectively, over a time window of 1000 us. The measurement was repeated 30 times for fluorescein and 30 times for terbium emission with a 1000 us time window between repeats. TR-FRET measurements were performed on a Biotek Synergy plate. The TR-FRET signal was calculated as the emission-ratio at 520 nm over 495 nm.

[2] = target: Leucine-rich repeat serine/threonine-protein kinase 2 [G2019S] (Homo sapiens, UniProt Q5S007, G2019S); test: LRRK2 Wild-Type and G2019S Kinase Activity Assay
Description: as §1

Leucine-rich repeat serine/threonine-protein kinase 2 [G2019S], sequence (Q5S007 whole entry G2019S): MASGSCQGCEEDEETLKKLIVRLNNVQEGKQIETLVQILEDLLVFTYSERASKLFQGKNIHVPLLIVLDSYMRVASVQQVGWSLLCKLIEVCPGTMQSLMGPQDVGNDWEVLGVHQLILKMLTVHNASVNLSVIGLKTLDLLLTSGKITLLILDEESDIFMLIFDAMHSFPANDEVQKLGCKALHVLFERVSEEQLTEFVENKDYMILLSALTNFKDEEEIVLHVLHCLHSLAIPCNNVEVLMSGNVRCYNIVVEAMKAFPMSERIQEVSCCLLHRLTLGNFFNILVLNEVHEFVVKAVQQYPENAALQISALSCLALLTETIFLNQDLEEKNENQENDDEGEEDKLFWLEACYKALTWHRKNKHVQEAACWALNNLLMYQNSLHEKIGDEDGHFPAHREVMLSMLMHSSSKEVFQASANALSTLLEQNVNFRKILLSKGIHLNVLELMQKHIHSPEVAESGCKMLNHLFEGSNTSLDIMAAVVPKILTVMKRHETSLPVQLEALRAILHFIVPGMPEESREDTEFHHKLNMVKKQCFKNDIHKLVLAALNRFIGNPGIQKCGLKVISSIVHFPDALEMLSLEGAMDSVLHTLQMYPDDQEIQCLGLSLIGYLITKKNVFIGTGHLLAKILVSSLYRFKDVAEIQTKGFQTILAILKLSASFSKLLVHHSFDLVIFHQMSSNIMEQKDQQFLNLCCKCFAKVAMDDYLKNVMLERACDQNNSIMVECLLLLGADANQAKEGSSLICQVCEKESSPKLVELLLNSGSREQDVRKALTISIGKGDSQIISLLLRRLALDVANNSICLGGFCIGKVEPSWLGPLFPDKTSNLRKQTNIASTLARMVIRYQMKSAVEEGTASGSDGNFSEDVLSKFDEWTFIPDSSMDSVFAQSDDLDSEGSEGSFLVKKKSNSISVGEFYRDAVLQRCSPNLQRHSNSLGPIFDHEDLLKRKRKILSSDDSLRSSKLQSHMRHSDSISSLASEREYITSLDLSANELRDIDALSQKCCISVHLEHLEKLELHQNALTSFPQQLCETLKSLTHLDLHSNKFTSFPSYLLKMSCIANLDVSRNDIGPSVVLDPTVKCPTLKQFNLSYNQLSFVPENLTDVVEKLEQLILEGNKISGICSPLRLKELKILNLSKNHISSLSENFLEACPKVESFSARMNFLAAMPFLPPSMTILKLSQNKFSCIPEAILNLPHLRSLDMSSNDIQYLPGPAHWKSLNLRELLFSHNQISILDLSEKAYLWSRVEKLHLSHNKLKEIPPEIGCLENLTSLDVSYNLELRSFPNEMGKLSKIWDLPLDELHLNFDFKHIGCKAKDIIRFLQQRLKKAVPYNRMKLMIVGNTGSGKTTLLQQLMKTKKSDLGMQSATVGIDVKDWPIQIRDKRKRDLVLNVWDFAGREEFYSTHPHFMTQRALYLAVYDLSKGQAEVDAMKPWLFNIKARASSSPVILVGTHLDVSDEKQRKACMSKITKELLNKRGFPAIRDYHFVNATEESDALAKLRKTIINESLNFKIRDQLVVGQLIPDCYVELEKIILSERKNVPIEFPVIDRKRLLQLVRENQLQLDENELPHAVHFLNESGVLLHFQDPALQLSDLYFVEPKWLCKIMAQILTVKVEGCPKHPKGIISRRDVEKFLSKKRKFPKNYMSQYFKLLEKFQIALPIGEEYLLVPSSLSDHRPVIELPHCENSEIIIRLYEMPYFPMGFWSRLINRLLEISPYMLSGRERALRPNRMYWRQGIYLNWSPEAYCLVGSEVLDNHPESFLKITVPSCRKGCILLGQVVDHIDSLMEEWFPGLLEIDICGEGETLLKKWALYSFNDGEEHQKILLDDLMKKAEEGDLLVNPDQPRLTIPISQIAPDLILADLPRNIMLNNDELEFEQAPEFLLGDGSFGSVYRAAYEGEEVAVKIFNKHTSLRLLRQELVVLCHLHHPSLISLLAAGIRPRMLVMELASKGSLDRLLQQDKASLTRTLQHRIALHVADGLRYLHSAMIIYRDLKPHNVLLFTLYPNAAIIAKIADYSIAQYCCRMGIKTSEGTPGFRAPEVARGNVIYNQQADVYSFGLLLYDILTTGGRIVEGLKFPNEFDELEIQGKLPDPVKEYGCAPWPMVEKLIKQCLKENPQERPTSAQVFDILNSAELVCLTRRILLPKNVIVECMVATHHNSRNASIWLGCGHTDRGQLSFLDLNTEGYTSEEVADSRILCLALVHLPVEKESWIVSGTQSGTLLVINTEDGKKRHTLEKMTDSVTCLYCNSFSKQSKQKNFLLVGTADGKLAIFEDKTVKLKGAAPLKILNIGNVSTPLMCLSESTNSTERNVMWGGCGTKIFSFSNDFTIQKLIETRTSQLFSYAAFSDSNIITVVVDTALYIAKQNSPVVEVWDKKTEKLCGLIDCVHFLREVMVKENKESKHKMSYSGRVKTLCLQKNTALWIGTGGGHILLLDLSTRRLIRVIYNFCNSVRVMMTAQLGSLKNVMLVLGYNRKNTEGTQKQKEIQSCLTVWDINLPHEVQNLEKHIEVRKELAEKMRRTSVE
Leucine-rich repeat serine/threonine-protein kinase 2, sequence (Q5S007 whole entry): as the sequence (Q5S007 whole entry G2019S) above, with S2019G counted along it

Compound | IC50 [1] | IC50 [2]
Cc1c2c(nn1[C@H]1CCCOC1)OCCCn1nc(Cl)c3cnc(nc31)N2 (single isomer, unassigned) [US11780851, Example 60] | 25 nM | 9 nM
Cc1c2c(nn1CC1(C)COC1)OCCCn1nc(Cl)c3cnc(nc31)N2 [US11780851, Example 12] | 32 nM | 12 nM
Cc1c([N+](=O)[O-])c(OCCCn2nc(Cl)c3cnc(Cl)nc32)nn1C1CCOCC1 [US11780851, Example 15] | 9.6 nM and 6.8 nM | 
Cc1c2c(nn1C1CCOCC1)OCCCn1nc(Cl)c3cnc(nc31)N2 [US11780851, Example 20] | 9.8 nM | 2.4 nM
Cc1c2c(nn1[C@H]1CCOC[C@H]1C)OCCCn1nc(Cl)c3cnc(nc31)N2 [US11780851, Example 21] | 10 nM | 3.7 nM
Cc1c2c(nn1[C@@H]1CCOC[C@H]1C)OCCCn1nc(Cl)c3cnc(nc31)N2 [US11780851, Example 22] | 10 nM | 3.5 nM
Cc1c2c(nn1C1CCCCOC1)OCCCn1nc(Cl)c3cnc(nc31)N2 (centres undefined) [US11780851, Example 30] | 12 nM | 4 nM
Cc1c2c(nn1[C@H]1CCOC[C@@H]1F)OCCCn1nc(Cl)c3cnc(nc31)N2 [US11780851, Example 31] | 5.6 nM | 2.4 nM
Cc1c2c(nn1[C@@H]1CCOC[C@@H]1F)OCCCn1nc(Cl)c3cnc(nc31)N2 [US11780851, Example 32] | 15 nM | 6.1 nM
Cc1c2c(nn1C13CC(C(N)=O)(C1)C3)OCCCn1nc(Cl)c3cnc(nc31)N2 [US11780851, Example 33] | 18 nM | 5.9 nM
Cc1c2c(nn1C1(C(N)=O)CC1)OCCCn1nc(Cl)c3cnc(nc31)N2 [US11780851, Example 36] | 23 nM | 7.2 nM
Cc1c2c(nn1C1CC1(F)F)OCCCn1nc(Cl)c3cnc(nc31)N2 (centres undefined) [US11780851, Example 39] | 19 nM | 7.8 nM
Cc1c2c(nn1[C@H]1CC1(F)F)OCCCn1nc(Cl)c3cnc(nc31)N2 [US11780851, Example 40] | 28 nM | 12 nM
Cc1c([N+](=O)[O-])c(OCCCn2nc(Cl)c3cnc(Cl)nc32)nn1[C@H]1C[C@@H](C)O[C@@H](C)C1 [US11780851, Example 41] | 17 nM | 6.4 nM
Cc1c2c(nn1[C@@H]1CCOC(C)(C)C1)OCCCn1nc(Cl)c3cnc(nc31)N2 [US11780851, Example 43] | 17 nM | 5.3 nM
Cc1c2c(nn1C1CC3CCC(C1)O3)OCCCn1nc(Cl)c3cnc(nc31)N2 (centres undefined) [US11780851, Example 44] | 13 nM | 4.3 nM
Cc1c2c(nn1[C@H]1CCO[C@@H](C)C1)OCCCn1nc(Cl)c3cnc(nc31)N2 [US11780851, Example 51] | 11 nM | 3.6 nM
CCc1c2c(nn1[C@@H]1CCOCC1F)OCCCn1nc(Cl)c3cnc(nc31)N2 (some centres undefined) [US11780851, Example 55] | 5.6 nM | 1.5 nM
CCc1c2c(nn1[C@H]1CCOCC1F)OCCCn1nc(Cl)c3cnc(nc31)N2 (some centres undefined) [US11780851, Example 56] | 4.9 nM | 2 nM
Cc1c2c(nn1[C@@H]1CCCOC1)OCCCn1nc(Cl)c3cnc(nc31)N2 [US11780851, Example 61] | 9.2 nM | 2.2 nM
F[C@@H]1COCC[C@H]1n1nc2c(c1Br)Nc1ncc3c(Cl)nn(c3n1)CCCO2 [US11780851, Example 62] | 17 nM | 5.9 nM
Clc1nn2c3nc(ncc13)Nc1c(nn([C@H]3CCOC4(CC4)C3)c1Br)OCCC2 [US11780851, Example 64] | 11 nM | 5 nM
Clc1nn2c3nc(ncc13)Nc1c(nn([C@@H]3CCOC4(CC4)C3)c1Br)OCCC2 [US11780851, Example 65] | 4.8 nM | 1.7 nM

Next, values leading:

IC50 [1] | IC50 [2] | Compound
8 nM | 2.2 nM | Cc1c2c(nn1C1CCOCC1)OCCCn1nc(Br)c3cnc(nc31)N2 [US11780851, Example 6]
13 nM | 3.9 nM | Cc1c2c(nn1[C@@H]1CCO[C@@H](C)C1)OCCCn1nc(Cl)c3cnc(nc31)N2 [US11780851, Example 19]
44 nM | 20 nM | Cc1c2c(nn1[C@H]1CCOC[C@@H]1C)OCCCn1nc(Cl)c3cnc(nc31)N2 [US11780851, Example 23]
25 nM and 14 nM | 7.3 nM and 4.3 nM | Cc1c2c(nn1[C@@H]1CCCCOC1)OCCCn1nc(Cl)c3cnc(nc31)N2 [US11780851, Example 29]
28 nM | 11 nM | Cc1c2c(nn1C1C3COCC31)OCCCn1nc(Cl)c3cnc(nc31)N2 (centres undefined) [US11780851, Example 38]
13 nM | 3.1 nM | Cc1c2c(nn1C1CCOC[C@@]1(C)F)OCCCn1nc(Cl)c3cnc(nc31)N2 (some centres undefined) [US11780851, Example 47]
90 nM | 18 nM | Cc1c2c(nn1C1CCOC[C@]1(C)F)OCCCn1nc(Cl)c3cnc(nc31)N2 (some centres undefined) [US11780851, Example 48]
10 nM | 5.3 nM | CO[C@H]1CC[C@H](n2nc3c(c2Br)Nc2ncc4c(Cl)nn(c4n2)CCCO3)CC1 [US11780851, Example 50]
19 nM | 10 nM | Cc1c2c(nn1[C@@H]1CCO[C@H](C)C1)OCCCn1nc(Cl)c3cnc(nc31)N2 [US11780851, Example 52]
2.6 nM | 0.88 nM | Cc1c2c(nn1[C@H]1CCOC3(CC3)C1)OCCCn1nc(Cl)c3cnc(nc31)N2 [US11780851, Example 54]
17 nM | 6.2 nM | Cc1c2c(nn1[C@@H]1CCCOCC1)OCCCn1nc(Cl)c3cnc(nc31)N2 [US11780851, Example 59]
11 nM | 4 nM | F[C@H]1COCC[C@@H]1n1nc2c(c1Br)Nc1ncc3c(Cl)nn(c3n1)CCCO2 [US11780851, Example 63]
